Values quoted from earlier work in patent publication US20230190668A1, “SLOW-RELEASE MEDICAL PLASTER” (FIDIA FARMACEUTICI S.P.A., priority 2020, published 2023).
Counter-ions that a name gives are not always drawn. Like-named read-outs stand apart in the source and are kept apart here.

Conditions: same matrix, active ingredient amount and excipients, 24 hours, without BHA

Row | Structure (SMILES) | release from medical plaster with PSA matrix of Eudragit NE40 and citric acid ester | release from medical plaster with PSA matrix of Eudragit NE40 and citric acid ester (sodium salt)
1 | O=C(O)Cc1ccccc1Nc1c(Cl)cccc1Cl [diclofenac DEA salt, diclofenac diethylammonium salt] | released in a constant, continuous, prolonged and therapeutically effective way for 24 hours | 
2 | O=C(O)Cc1ccccc1Nc1c(Cl)cccc1Cl [diclofenac sodium salt] |  | released in a minimal way
